Laboratory results from patent publication US10577363B2, “Substituted piperidine compounds” (EPIZYME, INC., priority 2014, dated 2020).

These molecules were tested against SMYD3 (Homo sapiens (Human), UniProt Q9H7B4) (assay: SMYD3 biochemical assay (SPA, 3H-SAM methylation of MEKK2 protein substrate)). Conditions: Table 1A; IC50 values are an average of n = 1 to n = 50; read-out: SMYD3 Biochem IC50.
Method in brief: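 Methylation of N-terminally GST-tagged MEKK2 by untagged full-length human SMYD3, using 3H-SAM, in pH 8.0 Tris buffer with TCEP, BSG and Tween 20; enzyme and compound sat 30 min at room temperature before substrate addition. Stopped with 100 uM (final) cold SAM; incorporation read by scintillation proximity as dpm/cpm.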

IC50 [µM]	Structure (SMILES)
0.32	C[C@@H]1C[C@@H](NC(=O)c2cc(C3CC3)on2)CCN1S(=O)(=O)c1ccc(N(C)CCN)nc1 [compound 508, N-((2R,4S)-1-((6-((2-aminoethyl)(methyl)amino)pyridin-3-yl)sulfonyl)-2-methylpiperidin-4-yl)-5-cyclopropylisoxazole-3-carboxamide]

Same assay, conditions: read-out: SMYD3 Biochem IC50 (μM)*

Structure (SMILES)	IC50 [µM]
Cc1ccc(C[C@@H](CN)C(=O)N2CCC(NC(=O)c3cc(C4CC4)on3)CC2)cc1O [compound 39, (S)-N-(1-(3-amino-2-(3-hydroxy-4-methylbenzyl)propanoyl)piperidin-4-yl)-5-cyclopropylisoxazole-3-carboxamide]	14
N[C@H]1CC[C@H](C(=O)N2C3CCC2CC(NC(=O)c2cc(C4CC4)on2)C3)CC1 (some centres unmarked) [compound 191, N-(8-((1r,4r)-4-aminocyclohexane-1-carbonyl)-8-azabicyclo[3.2.1]octan-3-yl)-5-cyclopropylisoxazole-3-carboxamide]	> 10
NC[C@@H](Cc1ccc(O)cc1)C(=O)N1CCC(NC(=O)c2cc(C3CC3)on2)CC1 [compound 26, (R)-N-(1-(3-amino-2-(4-hydroxybenzyl)propanoyl)piperidin-4-yl)-5-cyclopropylisoxazole-3-carboxamide]	5.24
C[C@@H]1C[C@@H](NC(=O)c2cc(C3CC3)on2)CCN1S(=O)(=O)c1ccc(Cl)nc1 [compound 241, N-((2R,4S)-1-((6-chloropyridin-3-yl)sulfonyl)-2-methylpiperidin-4-yl)-5-cyclopropylisoxazole-3-carboxamide]	> 10
NC1CCC(C(=O)N2CCC(NC(=O)c3cc(C4CC4)on3)CC2c2ccccc2)CC1 (centres unmarked) [compound 89, N-(1-((1r,4r)-4-aminocyclohexane-1-carbonyl)-2-phenylpiperidin-4-yl)-5-cyclopropylisoxazole-3-carboxamide]	3.39
C[C@@H]1CC(NC(=O)c2cc(C3CC3)on2)CCN1C(=O)CCN (stereo partly drawn) [compound 84, N-((2R)-1-(3-aminopropanoyl)-2-methylpiperidin-4-yl)-5-cyclopropylisoxazole-3-carboxamide]	6.14
C[C@H]1CC(NC(=O)c2cc(C3CC3)on2)CCN1C(=O)C1CCCNC1 (stereo partly drawn) [compound 132, 5-cyclopropyl-N-((2S)-2-methyl-1-(piperidine-3-carbonyl)piperidin-4-yl)isoxazole-3-carboxamide]	5.55
CC(C)CS(=O)(=O)N1CC[C@@H](NC(=O)c2cc(C3CC3)on2)C[C@H]1C [compound 250, 5-cyclopropyl-N-((2R,4R)-1-(isobutylsulfonyl)-2-methylpiperidin-4-yl)isoxazole-3-carboxamide]	9.45

Continued, values first:

IC50 [µM]	Structure (SMILES)
0.0816	NC[C@@H](Cc1ccc(O)c(C(F)(F)F)c1)C(=O)N1CCC(NC(=O)c2cc(C3CC3)on2)CC1 [compound 120, (R)-N-(1-(3-amino-2-(4-hydroxy-3-(trifluoromethyl)benzyl)propanoyl)piperidin-4-yl)-5-cyclopropylisoxazole-3-carboxamide]
4.04	N[C@H]1CC[C@H](C(=O)N2CC[C@@H](NC(=O)c3cc(C4CC4)on3)C[C@H]2CO)CC1 [compound 384, N-((2S,4R)-1-((1r,4S)-4-aminocyclohexane-1-carbonyl)-2-(hydroxymethyl)piperidin-4-yl)-5-cyclopropylisoxazole-3-carboxamide]
0.472	CC(C)CS(=O)(=O)N1CC[C@H](NC(=O)c2cc(C3CC3)on2)C[C@@H]1C [compound 230, 5-cyclopropyl-N-((2S,4S)-1-(isobutylsulfonyl)-2-methylpiperidin-4-yl)isoxazole-3-carboxamide]
1.31	NCCNc1ncccc1S(=O)(=O)N1C2CCCC1CC(NC(=O)c1cc(C3CC3)on1)C2 (centres unmarked) [compound 476, N-(9-((2-((2-aminoethyl)amino)pyridin-3-yl)sulfonyl)-9-azabicyclo[3.3.1]nonan-3-yl)-5-cyclopropylisoxazole-3-carboxamide]
1.37	C[C@H]1CN(C(=O)CCCN)CC[C@H]1NC(=O)c1cc(C2CC2)on1 [compound 194, N-((3S,4R)-1-(4-aminobutanoyl)-3-methylpiperidin-4-yl)-5-cyclopropylisoxazole-3-carboxamide]
